Reference: ChEMBL document CHEMBL5137081, “N-Heterocyclic 3-Pyridyl Carboxamide Inhibitors of DHODH for the Treatment of Acute Myelogenous Leukemia” (J Med Chem, 2022)

How the values were obtained:
[1] = Oral bioavailability in Sprague-Dawley rat at 10 mg/kg measured upto 24 hrs by LC-MS/MS analysis; format: ADME, organism-based; conditions: in vivo
MOLM-13 [2] = experiment: Antitumor activity against human MOLM-13 cells xenografted in NSG mouse assessed as tumor growth inhibition at 10 mg/kg, po qd administered for 5 days relative to control; format: functional; conditions: MOLM-13, 120 h, time 5 day, read-out: TGI
[3] = Toxicity in NSG mouse xenografted with human MOLM-13 cells assessed as change in body weight at 10 to 20 mg/kg, po qd administered for 5 days; format: organism-based; conditions: in vivo, 120 h, dose 10-20 mg/kg, time 5 day
[4] = molecular target: Voltage-gated inwardly rectifying potassium channel KCNH2 (Homo sapiens, UniProt Q12809); experiment: Inhibition of hERG expressed in HEK293 cells by radioligand binding assay; format: toxicity, cell-based
Sequence of Voltage-gated inwardly rectifying potassium channel KCNH2 (Q12809 whole entry): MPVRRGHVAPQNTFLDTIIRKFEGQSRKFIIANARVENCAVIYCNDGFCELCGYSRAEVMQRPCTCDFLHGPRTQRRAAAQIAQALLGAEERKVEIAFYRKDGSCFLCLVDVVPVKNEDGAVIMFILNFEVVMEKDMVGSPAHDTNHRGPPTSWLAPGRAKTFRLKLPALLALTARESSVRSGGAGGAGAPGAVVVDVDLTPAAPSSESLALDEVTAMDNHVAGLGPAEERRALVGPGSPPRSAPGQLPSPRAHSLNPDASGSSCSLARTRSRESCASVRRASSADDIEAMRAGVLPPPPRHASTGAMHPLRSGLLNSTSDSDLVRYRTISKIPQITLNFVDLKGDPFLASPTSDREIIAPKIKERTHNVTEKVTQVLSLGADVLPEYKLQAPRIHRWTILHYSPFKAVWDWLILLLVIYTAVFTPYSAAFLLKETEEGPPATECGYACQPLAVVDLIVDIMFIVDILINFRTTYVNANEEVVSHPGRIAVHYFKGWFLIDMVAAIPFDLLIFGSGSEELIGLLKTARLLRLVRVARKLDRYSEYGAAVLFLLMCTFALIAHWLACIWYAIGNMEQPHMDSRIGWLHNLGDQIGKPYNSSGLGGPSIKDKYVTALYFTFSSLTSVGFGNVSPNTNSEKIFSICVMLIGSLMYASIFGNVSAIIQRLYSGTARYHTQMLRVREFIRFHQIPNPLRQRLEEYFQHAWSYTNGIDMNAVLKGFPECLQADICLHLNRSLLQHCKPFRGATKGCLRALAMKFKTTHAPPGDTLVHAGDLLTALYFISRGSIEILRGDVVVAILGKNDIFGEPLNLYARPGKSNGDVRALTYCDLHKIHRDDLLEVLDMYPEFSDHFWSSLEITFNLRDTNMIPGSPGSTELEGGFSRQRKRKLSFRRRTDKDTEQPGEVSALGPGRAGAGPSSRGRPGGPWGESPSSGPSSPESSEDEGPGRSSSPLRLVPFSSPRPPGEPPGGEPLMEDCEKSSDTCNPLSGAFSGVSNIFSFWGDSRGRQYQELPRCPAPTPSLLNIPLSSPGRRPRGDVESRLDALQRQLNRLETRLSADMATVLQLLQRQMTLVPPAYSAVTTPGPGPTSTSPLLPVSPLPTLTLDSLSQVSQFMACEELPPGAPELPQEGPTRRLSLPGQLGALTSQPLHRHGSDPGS

MOLM-13 [5] = experiment: Antiproliferative activity against human MOLM-13 cells incubated for 72 hrs by CellTiter-Glo assay; format: functional, cell-based; conditions: MOLM-13, 72 h
Cytochrome P450 1A2 = molecular target: T1, Cytochrome P450 1A2 (Homo sapiens, UniProt P05177); experiment: Inhibition of CYP1A2 in human liver microsomes incubated for 10 mins by LC-MS/MS analysis; format: ADME, Microsome
T1 sequence (P05177 whole entry): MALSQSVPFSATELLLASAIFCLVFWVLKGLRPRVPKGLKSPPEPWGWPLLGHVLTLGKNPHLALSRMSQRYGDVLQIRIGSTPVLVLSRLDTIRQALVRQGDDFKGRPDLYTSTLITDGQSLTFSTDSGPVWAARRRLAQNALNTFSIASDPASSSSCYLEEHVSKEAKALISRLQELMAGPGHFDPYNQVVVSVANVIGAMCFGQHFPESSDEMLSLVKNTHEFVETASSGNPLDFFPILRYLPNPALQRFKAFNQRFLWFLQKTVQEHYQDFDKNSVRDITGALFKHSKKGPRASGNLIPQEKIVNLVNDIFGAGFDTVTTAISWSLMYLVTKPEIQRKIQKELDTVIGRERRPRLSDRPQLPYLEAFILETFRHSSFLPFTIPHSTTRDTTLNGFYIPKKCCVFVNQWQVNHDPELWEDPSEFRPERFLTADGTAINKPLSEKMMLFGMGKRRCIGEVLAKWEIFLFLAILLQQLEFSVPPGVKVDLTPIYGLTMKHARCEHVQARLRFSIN

MOLM-13 [6] = experiment: Antitumor activity against human MOLM-13 cells xenografted in NSG mouse assessed as tumor growth inhibition at 20 mg/kg, po qd administered for 5 days relative to control; format: functional; conditions: MOLM-13, 120 h, time 5 day, read-out: TGI
[7] = molecular target: Dihydroorotate dehydrogenase (quinone), mitochondrial (Homo sapiens, UniProt Q02127); experiment: Binding affinity to His fused human DHODH expressed in Escherichia coli by surface plasmon resonance assay
Sequence of Dihydroorotate dehydrogenase (quinone), mitochondrial (Q02127 whole entry, the tested form may be a part): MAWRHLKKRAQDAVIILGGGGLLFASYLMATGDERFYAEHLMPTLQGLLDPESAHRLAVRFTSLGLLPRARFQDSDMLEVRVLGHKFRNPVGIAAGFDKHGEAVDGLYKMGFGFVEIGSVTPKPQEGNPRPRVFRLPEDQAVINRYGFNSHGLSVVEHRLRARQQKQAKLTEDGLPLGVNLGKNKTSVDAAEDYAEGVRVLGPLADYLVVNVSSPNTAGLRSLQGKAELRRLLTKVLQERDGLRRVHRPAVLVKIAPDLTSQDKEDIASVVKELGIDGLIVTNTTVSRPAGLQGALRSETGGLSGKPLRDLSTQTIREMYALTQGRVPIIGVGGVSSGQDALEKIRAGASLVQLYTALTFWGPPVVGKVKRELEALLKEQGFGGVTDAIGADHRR

[8] = Volume of distribution at steady state in C57BL/6 mouse at 10 mg/kg, po or 2 mg/kg, iv measured upto 24 hrs by LC-MS/MS analysis; format: ADME, organism-based; conditions: in vivo
[9] = Toxicity in NSG mouse xenografted with human MOLM-13 cells assessed as change in body weight at 1.5 to 7.9 mg/kg, po qd administered for 5 days; format: organism-based; conditions: in vivo, 120 h, dose 1.5-7.9 mg/kg, time 5 day
MDR1 = experiment: Efflux ratio of apparent permeability across basolateral to apical side over apical to basolateral side in dog MDCK-MDR1 cells; format: ADME, cell-based, Canis lupus familiaris
MOLM-13 [10] = experiment: Antitumor activity against human MOLM-13 cells xenografted in NSG mouse assessed as tumor growth inhibition at 7.5 mg/kg, po qd administered for 5 days relative to control; format: functional; conditions: time 5 day
MOLM-13 [11] = experiment: Antitumor activity against human MOLM-13 cells xenografted in NSG mouse assessed as tumor growth inhibition at 3.75 mg/kg, po qd administered for 5 days relative to control; format: functional; conditions: time 5 day
MOLM-13 [12] = experiment: Antitumor activity against human MOLM-13 cells xenografted in NSG mouse assessed as tumor growth inhibition at 1.9 mg/kg, po qd administered for 5 days relative to control; format: functional; conditions: time 5 day

| F ([1]; po, 10 mg/kg, 24 h) [%] | IC50 (MOLM-13 [5]) [nM] | IC50 (Cytochrome P450 1A2) [nM] | Kd [7] [nM] | Vdss [8] [L/kg] | bioavailability ([1]; Sprague-Dawley) [%] | efflux ratio (MDR1) | Compound | inhibition in vivo at 10 mg/kg (MOLM-13 [2]) [%] | Activity [3] | IC50 [4] [nM] | inhibition in vivo at 20 mg/kg (MOLM-13 [6]) [%] | Activity [9] | TGI (MOLM-13 [10]) [%] | TGI (MOLM-13 [11]) [%] | TGI (MOLM-13 [12]) [%] |
| --- | --- | --- | --- | --- | --- | --- | --- | --- | --- | --- | --- | --- | --- | --- | --- |
| 167 | 2 | > 10000 | 3.3 | 1.3 | – | – | CCn1c(CO)nn(-c2nc(O[C@@H](C)C(F)(F)F)c(C(=O)Nc3c(C)ccnc3Cl)cc2F)c1=O | 44 | Non-Toxic | > 10000 | 60 | – | – | – | – |
| – | 0.4 | > 10000 | 1.1 | 2.4 | 106 | > 30 | CCn1c(CO)nn(-c2nc(O[C@@H](C)C(F)(F)F)c(C(=O)Nc3c(C)cnc(OC)c3Cl)cc2F)c1=O | – | – | > 10000 | – | Non-Toxic | 79 | 76 | 71 |
